The results in this text go back to patent publication US12673924B2, “Valiolamine derivatives as glucosidase inhibitors” (Emergent Product Development Gaithersburg Inc., priority 2021, dated 2026).

Holding throughout (assay type): biochemical
One assay has as its target T1, recombinant human GBA (Homo sapiens, UniProt P04062).
T1 construct: purchased
T1 sequence (P04062 40-536): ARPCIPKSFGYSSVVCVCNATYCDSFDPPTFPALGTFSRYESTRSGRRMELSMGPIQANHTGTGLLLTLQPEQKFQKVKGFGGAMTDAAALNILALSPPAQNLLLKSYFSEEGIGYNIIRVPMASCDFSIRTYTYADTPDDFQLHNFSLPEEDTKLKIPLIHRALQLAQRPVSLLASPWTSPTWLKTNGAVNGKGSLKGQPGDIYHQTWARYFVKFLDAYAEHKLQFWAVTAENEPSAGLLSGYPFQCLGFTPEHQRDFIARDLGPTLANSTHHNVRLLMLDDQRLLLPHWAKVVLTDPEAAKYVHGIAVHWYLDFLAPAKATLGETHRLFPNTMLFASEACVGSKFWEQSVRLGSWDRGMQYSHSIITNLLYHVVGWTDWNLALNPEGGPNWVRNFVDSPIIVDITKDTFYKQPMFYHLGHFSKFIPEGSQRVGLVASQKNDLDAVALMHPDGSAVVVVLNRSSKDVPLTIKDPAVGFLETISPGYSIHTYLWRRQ
Nature of the assay: Beta-glucocerebrosidase (GBA) inhibition assay. Particulars: 4-methylumbelliferyl-beta-D-pyranoside substrate, 4-PL curve fit. As for the experimental part: Beta-glucocerebrosidase (GBA, also referred to glucosylceramidase): To analyze inhibitory effects of a test compound, commercially available recombinant human GBA was incubated with multiple dilutions of test compound for 60 minutes at 37° C. 4-methylumbelliferyl-beta-D-pyranoside was then introduced to the mixture as substrate. Following incubation for 60 minutes at 37° C., 1,4-methyllumbelliferone was generated, and the reaction was stopped with the stop solution (0.5 M glycine; 0.3 M NaOH, pH 10). 1,4-methyllumbelliferone was detected by fluorescence (excitation at 365 nm, emission at 440 nm). Relative fluorescence is compared to untreated enzymatic activity and test compound concentration is then plotted as a function of percent inhibition. The IC50 was determined using a 4-PL curve fit as the measure of relative inhibitory activity of each test compound (see Table 4).

For the next assay, the target named is T2, rat sucrase (Rattus norvegicus, UniProt P23739).
T2 construct: partially purified alpha-glucosidase from intestinal rat powder; from tissue; host or cells: rat intestinal powder
T2 sequence (P23739 whole entry): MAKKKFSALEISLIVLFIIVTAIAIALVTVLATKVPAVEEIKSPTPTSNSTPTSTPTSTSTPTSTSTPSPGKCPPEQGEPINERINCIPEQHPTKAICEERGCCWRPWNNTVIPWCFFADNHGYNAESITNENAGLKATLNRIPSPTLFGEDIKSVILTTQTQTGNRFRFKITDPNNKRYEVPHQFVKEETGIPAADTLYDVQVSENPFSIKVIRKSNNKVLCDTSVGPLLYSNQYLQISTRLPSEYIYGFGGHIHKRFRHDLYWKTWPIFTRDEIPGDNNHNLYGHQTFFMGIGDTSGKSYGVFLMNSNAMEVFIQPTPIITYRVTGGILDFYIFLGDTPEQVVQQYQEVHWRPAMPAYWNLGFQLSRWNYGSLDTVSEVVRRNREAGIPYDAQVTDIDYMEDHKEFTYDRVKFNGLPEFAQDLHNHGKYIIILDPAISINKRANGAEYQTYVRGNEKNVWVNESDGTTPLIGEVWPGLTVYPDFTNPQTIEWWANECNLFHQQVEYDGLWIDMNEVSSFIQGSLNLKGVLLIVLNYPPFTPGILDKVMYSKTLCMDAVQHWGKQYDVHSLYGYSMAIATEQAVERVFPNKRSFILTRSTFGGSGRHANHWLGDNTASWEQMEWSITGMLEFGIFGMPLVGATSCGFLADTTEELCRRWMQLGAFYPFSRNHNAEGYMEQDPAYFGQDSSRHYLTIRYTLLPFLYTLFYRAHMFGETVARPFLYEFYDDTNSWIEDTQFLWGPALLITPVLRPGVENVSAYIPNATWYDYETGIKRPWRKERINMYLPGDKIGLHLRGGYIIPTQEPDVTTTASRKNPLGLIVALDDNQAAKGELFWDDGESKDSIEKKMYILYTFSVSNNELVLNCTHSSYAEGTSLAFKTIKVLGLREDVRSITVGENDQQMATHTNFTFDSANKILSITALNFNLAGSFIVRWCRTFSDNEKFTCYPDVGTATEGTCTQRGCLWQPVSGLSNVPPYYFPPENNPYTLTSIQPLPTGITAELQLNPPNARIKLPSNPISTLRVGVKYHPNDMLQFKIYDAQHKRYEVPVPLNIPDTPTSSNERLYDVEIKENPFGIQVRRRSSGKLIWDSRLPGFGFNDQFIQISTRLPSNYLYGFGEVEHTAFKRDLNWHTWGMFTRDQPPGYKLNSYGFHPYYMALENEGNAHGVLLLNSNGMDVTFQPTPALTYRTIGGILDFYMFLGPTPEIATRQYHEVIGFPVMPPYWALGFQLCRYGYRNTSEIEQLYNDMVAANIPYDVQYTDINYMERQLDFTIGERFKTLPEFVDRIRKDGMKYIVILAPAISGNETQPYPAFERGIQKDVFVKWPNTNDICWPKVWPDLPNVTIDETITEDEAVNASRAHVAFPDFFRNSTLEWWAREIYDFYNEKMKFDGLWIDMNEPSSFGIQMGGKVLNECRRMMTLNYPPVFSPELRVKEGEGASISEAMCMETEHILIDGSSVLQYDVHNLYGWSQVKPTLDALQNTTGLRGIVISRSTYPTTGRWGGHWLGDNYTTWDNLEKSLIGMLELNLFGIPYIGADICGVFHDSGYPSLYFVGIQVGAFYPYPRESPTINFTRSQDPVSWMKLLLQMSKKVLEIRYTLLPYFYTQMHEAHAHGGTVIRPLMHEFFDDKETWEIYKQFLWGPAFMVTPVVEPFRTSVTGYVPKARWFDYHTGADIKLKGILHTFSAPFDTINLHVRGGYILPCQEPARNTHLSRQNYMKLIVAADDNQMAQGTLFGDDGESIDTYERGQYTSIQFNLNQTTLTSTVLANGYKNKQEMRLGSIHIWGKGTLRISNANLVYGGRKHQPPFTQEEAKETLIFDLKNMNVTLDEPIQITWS
The assay can be described thus: Intestinal alpha-glucosidase assay, sucrose substrate. Particulars: alpha-glucosidase from intestinal rat powder. The method, then:
(§1) Intestinal alpha-glucosidases (rat maltase and sucrase): Intestinal alpha-glucosidases act upon 1,4-alpha-glucoside bonds, breaking down disaccharides to glucose. To perform this assay, partially purified alpha-glucosidase from intestinal rat powder was incubated for 60 minutes at 37° C. with multiple dilutions of test compounds. Maltose or Sucrose respectively was then introduced as substrate to the mixture and incubated for 30 minutes at 37° C. The reaction was stopped by a 5-minute incubation at 90° C. and the resultant glucose production is detected using Sigma's Glucose GO Kit. Percent inhibition was then plotted as a function of concentration for each test compound. The IC50 was determined using a 4-PL curve fit and serves as the measure of relative inhibition of each test compound (see Table 4). Table 4 summarizes the results of IC50s for each molecule against each tested glucosidase enzyme.

The next assay deals with rat maltase. The assay can be described thus: Intestinal alpha-glucosidase assay, maltose substrate. The following applies: alpha-glucosidase from intestinal rat powder. As for the experimental part:
as §1

As a reminder, the IC50 is the point on the concentration scale where inhibition reaches its midpoint. For the compound `COCCCCCCCCCN[C@H]1C[C@](O)(CO)[C@@H](O)[C@H](O)[C@H]1O` [Compound 3, (1S,2S,3R,4S,5S)-1-(hydroxymethyl)-5-((9-methoxynonyl)amino)cyclohexane-1,2,3,4-tetraol], the results for the IC50 on recombinant human GBA, against rat sucrase and on rat maltase were greater than 1000 µM, 0.116 µM and 0.102 µM, respectively.
In the case of `N[C@H]1C[C@](O)(CO)[C@@H](O)[C@H](O)[C@H]1O` [Valiolamine], the IC50 on recombinant human GBA was greater than 1000 µM; on rat sucrase, 0.334 µM; against rat maltase it was 1.3 µM.
In the same order, the values of `O=[N+]([O-])c1cc(-n2cnnn2)ccc1NCCCCCCN[C@H]1C[C@](O)(CO)[C@@H](O)[C@H](O)[C@H]1O` [Compound 4, (1S,2S,3R,4S,5S)-1-(hydroxymethyl)-5-((6-((2-nitro-4-(1H-tetrazol-1-yl)phenyl)amino)hexyl)amino)cyclohexane-1,2,3,4-tetraol] are greater than 1000 µM, 2.93 µM and 0.512 µM.
In the same order, the values of `[N-]=[N+]=Nc1ccc(NCCCCCCN[C@H]2C[C@](O)(CO)[C@@H](O)[C@H](O)[C@H]2O)c([N+](=O)[O-])c1` [Compound 2, (1S,2S,3R,4S,5S)-5-((6-((4-azido-2-nitrophenyl)amino)hexyl)amino)-1-(hydroxymethyl)cyclohexane-1,2,3,4-tetraol] are 139 µM, less than 0.0333 µM and 0.00165 µM.
In the same order, the values of `O=C(O)CCCCN[C@H]1C[C@](O)(CO)[C@@H](O)[C@H](O)[C@H]1O` [Compound 11, 5-(((1S,2S,3R,4S,5S)-2,3,4,5-tetrahydroxy-5-(hydroxymethyl)cyclohexyl)amino)pentanoic acid] are greater than 1000 µM, 3.16 µM and 7.58 µM.
For the compound `O=[N+]([O-])c1cc(-n2nccn2)ccc1NCCCCCCN[C@H]1C[C@](O)(CO)[C@@H](O)[C@H](O)[C@H]1O` [Compound 5, (1S,2S,3R,4S,5S)-1-(hydroxymethyl)-5-((6-((2-nitro-4-(2H-1,2,3-triazol-2-yl)phenyl)amino)hexyl)amino)cyclohexane-1,2,3,4-tetraol], the figures for the IC50 on recombinant human GBA, against rat sucrase and against rat maltase were 143 µM, 0.0342 µM and less than 0.0333 µM, respectively.
The like results for `O=[N+]([O-])c1cc(-n2ccnn2)ccc1NCCCCCCN[C@H]1C[C@](O)(CO)[C@@H](O)[C@H](O)[C@H]1O` [Compound 6, (1S,2S,3R,4S,5S)-1-(hydroxymethyl)-5-((6-((2-nitro-4-(1H-1,2,3-triazol-1-yl)phenyl)amino)hexyl)amino)cyclohexane-1,2,3,4-tetraol] were, in that order, 776 µM, 0.0674 µM and less than 0.0333 µM.
`[N-]=[N+]=Nc1ccc(NCCCCN[C@H]2C[C@](O)(CO)[C@@H](O)[C@H](O)[C@H]2O)c([N+](=O)[O-])c1` [Compound 8, (1S,2S,3R,4S,5S)-5-((4-((4-azido-2-nitrophenyl)amino)butyl)amino)-1-(hydroxymethyl)cyclohexane-1,2,3,4-tetraol]: the IC50 at recombinant human GBA is greater than 1000 µM; at rat maltase, 0.0053 µM.
`O=[N+]([O-])c1cc(-c2ncccn2)ccc1NCCCCCCN[C@H]1C[C@](O)(CO)[C@@H](O)[C@H](O)[C@H]1O` [Compound 7, (1S,2S,3R,4S,5S)-1-(hydroxymethyl)-5-((6-((2-nitro-4-(pyrimidin-2-yl)phenyl)amino)hexyl)amino)cyclohexane-1,2,3,4-tetraol]: the IC50 on recombinant human GBA is greater than 1000 µM; on rat maltase, 0.00814 µM.
For `[N-]=[N+]=Nc1ccc(NCCCCCN[C@H]2C[C@](O)(CO)[C@@H](O)[C@H](O)[C@H]2O)c([N+](=O)[O-])c1` [Compound 9, (1S,2S,3R,4S,5S)-5-((5-((4-azido-2-nitrophenyl)amino)pentyl)amino)-1-(hydroxymethyl)cyclohexane-1,2,3,4-tetraol], the IC50 at recombinant human GBA stood at 103 µM; against rat sucrase it was 0.0112 µM; on rat maltase, 0.00486 µM.
On to `[N-]=[N+]=Nc1ccc(NCCOCCN[C@H]2C[C@](O)(CO)[C@@H](O)[C@H](O)[C@H]2O)c([N+](=O)[O-])c1` [Compound 10, (1S,2S,3R,4S,5S)-5-((2-(2-((4-azido-2-nitrophenyl)amino)ethoxy)ethyl)amino)-1-(hydroxymethyl)cyclohexane-1,2,3,4-tetraol], for which the IC50 was greater than 1000 µM at recombinant human GBA and 0.0261 µM against rat maltase.
